Some test systems named below: HCT-116; TK-10; NCI/ADR-RES; IGROV-1; ACHN; HCT-15; HOP-62; UACC-257; RXF 393; OVCAR-5; MCF7; MOLT-4; A549; SK-OV-3; Hs-578T; K562; EKVX; M14; HOP-92; COLO 205.
Holding throughout (assay): NCI anticancer screen, dose series, 48 h

Results on eight compounds are retold here after ChEMBL document CHEMBL1201862, “PubChem BioAssay data set” (2004).

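48-hour exposure; five concentrations; linearly interpolated endpoints. At the GI50, growth is halved.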 Activity calls are given as the source filed them. Cut-off read from the data, not from the text of the source: active = GI50 up to about 1.1 µM and inactive = higher.

As for `O=C1C=C(Nc2ccc(S(=O)(=O)Nc3nccs3)cc2)c2ccccc2C1=O`, the GI50 with HCT-116 was 34.5 µM (inactive); with TK-10 it was > 100 µM (inactive); in the assay with NCI/ADR-RES it was 27.5 µM (inactive); in the assay with IGROV-1, 12.5 µM (inactive); with ACHN, 21 µM (inactive); with HCT-15, 23.7 µM. Besides, the GI50 is 15.4 µM (inactive) in the assay on HOP-62; 31.6 µM (inactive) with UACC-257; > 100 µM (inactive) in the assay with RXF 393; 17.5 µM (inactive) in the assay on OVCAR-5; 18.9 µM (inactive) in the assay with MCF7; 11.8 µM (inactive) with MOLT-4. The GI50 was > 100 µM (inactive) with A549; > 100 µM (inactive) with SK-OV-3; 25.8 µM (inactive) with Hs-578T; 12.1 µM (inactive) with K562; 26.4 µM (inactive) in the assay on EKVX; 21.9 µM (inactive) in the assay on M14. In the assay with HOP-92, the GI50 is 34.5 µM (inactive).

For the compound `COc1ccc(N2C(=O)/C(=C\c3cccc(Oc4ccccc4)c3)SC2c2ccccc2)cc1` (stereo not drawn), the GI50 is 25.4 µM (inactive) with HCT-116; > 100 µM (inactive) with TK-10; 42.5 µM (inactive) in the assay on NCI/ADR-RES; > 100 µM (inactive) in the assay on ACHN; above 100 µM with HCT-15; 64.9 µM (inactive) in the assay with HOP-62. For the same compound, the GI50 with UACC-257 was 38.7 µM (inactive); in the assay with COLO 205, 66.8 µM (inactive); in the assay with RXF 393, 8.59 µM (inactive); in the assay with OVCAR-5, > 100 µM (inactive); in the assay on MCF7 it was 29.9 µM (inactive); in the assay with MOLT-4, 26.7 µM (inactive). Also, the GI50 in the assay on A549 is > 100 µM (inactive); in the assay on SK-OV-3, 80.9 µM (inactive); in the assay with Hs-578T it was 10.3 µM (inactive); in the assay with K562 it was 26.4 µM (inactive); in the assay on EKVX, > 100 µM (inactive); in the assay with M14, 49.7 µM (inactive). In addition, the GI50 in the assay on HOP-92 is 28.2 µM (inactive).

On to `CCOC(=O)/C(=C\NC(C)(C)C)c1nc2ccccc2o1`, for which the GI50 with HCT-116 is 37.3 µM (inactive); in the assay on TK-10, 27.2 µM (inactive); in the assay with NCI/ADR-RES, 35.6 µM (inactive); in the assay with IGROV-1, 51.9 µM (inactive); with ACHN, 27.6 µM (inactive); in the assay with HCT-15 it was 36.6 µM. Further, the GI50 with HOP-62 was > 100 µM (inactive); in the assay on UACC-257, 20.1 µM (inactive); in the assay with COLO 205, 21.3 µM (inactive); in the assay with RXF 393, 24.7 µM (inactive); in the assay with OVCAR-5 it was 60 µM (inactive); in the assay with MCF7 it was 29.3 µM (inactive). For the same compound, the GI50 was 42.4 µM (inactive) in the assay on A549; 92 µM (inactive) with SK-OV-3; 28.3 µM (inactive) with Hs-578T; > 100 µM (inactive) in the assay with EKVX; 48 µM (inactive) in the assay with M14; 33.5 µM (inactive) in the assay on HOP-92.

`CCCCCC(=O)OCC1(CO)C/C(=C/CC(C(C)C)C(C)C)C(=O)O1` (stereo not drawn): the GI50 in the assay on HCT-116 is 27.7 µM (inactive); with TK-10, > 75 µM (inactive); in the assay on NCI/ADR-RES, > 75 µM (inactive); in the assay with IGROV-1, 17.8 µM (inactive); in the assay with ACHN it was 58.5 µM (inactive); in the assay on HCT-15, 73.1 µM. The GI50 was 38.7 µM (inactive) with HOP-62; > 75 µM (inactive) with UACC-257; 26.5 µM (inactive) in the assay on COLO 205; > 75 µM (inactive) in the assay with RXF 393; > 75 µM (inactive) in the assay on OVCAR-5; 40.9 µM (inactive) with MCF7. Further, the GI50 with A549 was 51.1 µM (inactive); in the assay with SK-OV-3 it was > 75 µM (inactive); with Hs-578T, 33.3 µM (inactive); in the assay on EKVX, > 75 µM (inactive); in the assay on HOP-92, 27 µM (inactive).

Consider `CC(=O)OC(/C=C/c1ccccc1)=C(OC(C)C)/C1=C(\c2ccccc2)SCCCSC1=O`, for which the GI50 with HCT-116 is > 100 µM (inactive); in the assay on TK-10 it was > 100 µM (inactive); with NCI/ADR-RES, > 100 µM (inactive); with ACHN, > 100 µM (inactive); in the assay with HCT-15, above 100 µM; with HOP-62, > 100 µM (inactive). The GI50 is > 100 µM (inactive) in the assay with UACC-257; > 100 µM (inactive) in the assay on COLO 205; 74.3 µM (inactive) in the assay with RXF 393; > 100 µM (inactive) with OVCAR-5; 36 µM (inactive) with MCF7; > 100 µM (inactive) in the assay with MOLT-4. Besides, the GI50 in the assay on A549 was > 100 µM (inactive); in the assay with SK-OV-3 it was > 100 µM (inactive); in the assay with Hs-578T, > 100 µM (inactive); in the assay with K562, > 100 µM (inactive); with EKVX, 53.2 µM (inactive); in the assay with M14 it was > 100 µM (inactive). The GI50 in the assay with HOP-92 is > 100 µM (inactive).

On to `C=C1C(=O)O[C@H]2[C@H]1CC(=O)/C(C)=C/CC[C@@]1(C)O[C@@H]21`, for which the GI50 with HCT-116 is 0.719 µM (active); in the assay on TK-10 it was 1.24 µM (inactive); with NCI/ADR-RES, 1.4 µM (inactive); with IGROV-1, 2.04 µM (inactive); with ACHN, 0.461 µM (active); in the assay on HCT-15, 0.515 µM. Further, the GI50 is 8.36 µM (inactive) with HOP-62; 0.255 µM (active) in the assay on COLO 205; 0.44 µM (active) in the assay on RXF 393; 2.15 µM (inactive) in the assay with OVCAR-5; 0.392 µM (active) in the assay with MCF7; 12.7 µM (inactive) in the assay with A549. Also, the GI50 was 12.9 µM (inactive) in the assay on SK-OV-3, 2.4 µM (inactive) in the assay on Hs-578T, 0.37 µM (active) with M14 and 0.74 µM (active) in the assay with HOP-92.

In the case of `CCOC(=O)/C(C(C)=O)=C(\OC(C)=O)c1ccncc1C(=O)O`, the GI50 in the assay with HCT-116 was > 100 µM (inactive); with NCI/ADR-RES, > 100 µM (inactive); in the assay on IGROV-1 it was > 100 µM (inactive); in the assay on ACHN, > 100 µM (inactive); with HCT-15 it was above 100 µM; with UACC-257, > 100 µM (inactive). For the same compound, the GI50 in the assay on COLO 205, with RXF 393, in the assay with OVCAR-5, with MCF7, in the assay with MOLT-4 and with A549 was > 100 µM (inactive) in each case. Moreover, the GI50 in the assay with SK-OV-3, with Hs-578T, in the assay with K562, with EKVX, with M14 and with HOP-92 was > 100 µM (inactive) each time.

For `O=C1CCCC[C@H]1C(O)CC1CC(=O)N(c2ccccc2)C(=O)C1` (stereo partly drawn), the GI50 in the assay on HCT-116 was > 100 µM (inactive); in the assay on TK-10, > 100 µM (inactive); in the assay on NCI/ADR-RES it was > 100 µM (inactive); in the assay on IGROV-1, > 100 µM (inactive); in the assay on ACHN, > 100 µM (inactive); with HCT-15, above 100 µM. The GI50 in the assay with HOP-62, with UACC-257, with RXF 393, in the assay with OVCAR-5, in the assay on MCF7 and in the assay on MOLT-4 was > 100 µM (inactive) in each case. Also, the GI50 in the assay on A549, with Hs-578T, with K562, with M14 and in the assay with HOP-92 was > 100 µM (inactive) throughout.
